Data on 1 compound can be found in patent US8394783B2, “Polysaccharide gel formulation having multi-stage bioactive agent delivery” (Allergan, Inc., priority 2007, dated 2013).

Test [1] deals with Hyaluronidase. The experiment in a line: Enzymatic degradation study (Morgan-Elson colorimetric assay). Format: biochemical. Particulars: generally an order of magnitude less TA gives the same inhibition as CSA. The method, then:
The HA filling gels prepared in Examples 1 and 2, were evaluated for resistance to enzymatic degradation using the Morgan-Elson colorimetric assay. This assay was applied to estimate the extend of enzymatic degradation by measuring changes in the molecular weight of the HA chains.
Hyaluronidase (0.1-10 mg) was added to each HA formulation, incubated for 10-250 mins at 37° C. followed by addition of 0.1 mL of a 0.8 M potassium tetraborate solution and heating at 100° C. for 10 min. The samples were supplemented with 3 mL of a 10% (wt) p-dimethylaminobenzaldehyde solution in acetic acid and incubated at 37° C. for 10-120 mins. The process was repeated for each HA formulation, omitting the enzyme addition, to prepare a control sample. The change in the optical density (OD) at 585 nm between the enzymatically degraded sample and the control sample was used to quantify the extent of degradation for each formulation.

In test [2] the test system is Hyaluronidase. Briefly: Enzymatic degradation study (SEC-MALS soluble HA assay). Format: biochemical. The text has this: The HA filling gels prepared in Examples 1 and 2, were further evaluated for resistance to enzymatic degradation by using a SEC-MALS (Size Exclusion Multi-Angle Light Scattering) based soluble HA assay. This assay was applied to quantify degradation by evaluating the soluble HA content in each sample (defined as the portion of the gel that can pass through a 0.2-1.0 μm filter). The difference in the soluble HA content, between an enzymatically degraded sample and a control sample was used to quantify the extent of degradation for each HA formulation.
The SEC-MALS tests were performed using an Agilent size exclusion chromatography system equipped with Wyatt light scattering and refractive index units. Hyaluronidase (0.1-10 mg) was added to each HA formulation, incubated for 10-250 mins at 37° C. followed by addition of 0.1 ml of a 0.8 M potassium tetraborate solution and heating at 100° C. for 10 mins. The samples were diluted in PBS, filtered through a 0.2-1.0 μm filter and injected into the SEC-MALS system. The process was repeated for each HA formulation, omitting the enzyme addition, to prepare a control sample. The soluble HA content of the enzymatically degraded sample, the control sample as well as the difference between the two is summarized in FIG. 3.
In general terms: Size exclusion chromatography separates by hydrodynamic size, large species first.

`O=C(OC[C@H]1O[C@@H](OC(=O)c2cc(O)c(O)c(OC(=O)c3cc(O)c(O)c(O)c3)c2)[C@H](OC(=O)c2cc(O)c(O)c(OC(=O)c3cc(O)c(O)c(O)c3)c2)[C@@H](OC(=O)c2cc(O)c(O)c(OC(=O)c3cc(O)c(O)c(O)c3)c2)[C@@H]1OC(=O)c1cc(O)c(O)c(OC(=O)c2cc(O)c(O)c(O)c2)c1)c1cc(O)c(O)c(OC(=O)c2cc(O)c(O)c(O)c2)c1` [TA, tannic acid]: the “inhibitory activity of TA compared with CSA” value was “higher inhibitory activity than CSA” in test [1] and “significantly higher than that of CSA” in test [2].
